ChEMBL document CHEMBL1255329, “Effect of polysorbate 80 on oritavancin binding to plastic surfaces: implications for susceptibility testing” (2008)
≈ marks a conversion by molar mass, not a printed value.

Key:
Type in all cases: functional
Enterococcus faecalis [1] = test: Antibacterial activity against Enterococcus faecalis ATCC 29212 in CAMHB medium by broth microdilution method in absence of 0.002% polysorbate 80
Streptococcus pneumoniae [2] = test: Antibacterial activity against Streptococcus pneumoniae ATCC 49619 in CAMHB medium containing 2% LHB by broth microdilution method in absence of 0.002% polysorbate 80
Streptococcus pneumoniae [3] = test: Antibacterial activity against Streptococcus pneumoniae ATCC 49619 in BHI broth containing 2% LHB by broth microdilution method in absence of 0.002% polysorbate 80
Enterococcus faecium [4] = test: Antibacterial activity against Enterococcus faecium clinical isolate by broth microdilution method in presence of 0.002% polysorbate 80
Staphylococcus aureus [5] = test: Antibacterial activity against Staphylococcus aureus ATCC 29213 in CAMHB medium containing 2% LHB by broth microdilution method in presence of 0.002% polysorbate 80
Streptococcus pneumoniae [6] = test: Antibacterial activity against Streptococcus pneumoniae ATCC 49619 in BHI broth by broth microdilution method in absence of 0.002% polysorbate 80
[7] = Antibacterial activity against Streptococcus Group G clinical isolate by broth microdilution method; details: Streptococcus sp. 'group G'
[8] = Antibacterial activity against Streptococcus Group C clinical isolate by broth microdilution method in presence of 0.002% polysorbate 80; details: Streptococcus sp. 'group C'
Streptococcus pneumoniae [9] = test: Antibacterial activity against Streptococcus pneumoniae clinical isolate by broth microdilution method
Staphylococcus aureus [10] = test: Antibacterial activity against Staphylococcus aureus ATCC 29213 in CAMHB medium containing 2% LHB by broth microdilution method in absence of 0.002% polysorbate 80
Streptococcus agalactiae [11] = test: Antibacterial activity against Streptococcus agalactiae clinical isolate using 2% LHB by broth microdilution method
Streptococcus viridans [12] = test: Ratio of MIC for Streptococcus viridans group clinical isolate to MIC for Streptococcus viridans group clinical isolate in presence of 0.002% polysorbate 80
Staphylococcus aureus [13] = test: Antibacterial activity against Staphylococcus aureus ATCC 29213 in CAMHB medium by broth microdilution method in absence of 0.002% polysorbate 80
Streptococcus pneumoniae [14] = test: Antibacterial activity against Streptococcus pneumoniae ATCC 49619 in BHI broth by broth microdilution method in presence of 0.002% polysorbate 80
Streptococcus pyogenes [15] = test: Ratio of MIC for Streptococcus pyogenes clinical isolate to MIC for Streptococcus pyogenes clinical isolate in presence of 0.002% polysorbate 80
Streptococcus pneumoniae [16] = test: Antibacterial activity against Streptococcus pneumoniae ATCC 49619 in BHI broth containing 2% LHB by broth microdilution method in presence of 0.002% polysorbate 80
Enterococcus faecalis [17] = test: Ratio of MIC for Enterococcus faecalis clinical isolate to MIC for Enterococcus faecalis clinical isolate in presence of 0.002% polysorbate 80
Staphylococcus aureus [18] = test: Antibacterial activity against Staphylococcus aureus ATCC 29213 in CAMHB medium by broth microdilution method in presence of 0.002% polysorbate 80
Streptococcus pyogenes [19] = test: Antibacterial activity against Streptococcus pyogenes clinical isolate by broth microdilution method
Staphylococcus aureus [20] = test: Ratio of MIC for Staphylococcus aureus clinical isolate to MIC for Staphylococcus aureus clinical isolate in presence of 0.002% polysorbate 80
Enterococcus faecalis [21] = test: Antibacterial activity against Enterococcus faecalis clinical isolate by broth microdilution method
Enterococcus faecalis [22] = test: Antibacterial activity against Enterococcus faecalis ATCC 29212 in CAMHB medium containing 2% LHB by broth microdilution method in presence of 0.002% polysorbate 80
Staphylococcus [23] = test: Antibacterial activity against coagulase-negative Staphylococcus clinical isolate by broth microdilution method
Enterococcus faecium [24] = test: Antibacterial activity against Enterococcus faecium clinical isolate by broth microdilution method
Staphylococcus [25] = test: Antibacterial activity against coagulase-negative Staphylococcus clinical isolate by broth microdilution method in presence of 0.002% polysorbate 80
Streptococcus pneumoniae [26] = test: Ratio of MIC for Streptococcus pneumoniae clinical isolate to MIC for Streptococcus pneumoniae clinical isolate in presence of 0.002% polysorbate 80
Streptococcus pneumoniae [27] = test: Antibacterial activity against Streptococcus pneumoniae ATCC 49619 in CAMHB medium containing 2% LHB by broth microdilution method in presence of 0.002% polysorbate 80
Staphylococcus [28] = test: Ratio of MIC for coagulase-negative Staphylococcus clinical isolate to MIC for coagulase-negative Staphylococcus clinical isolate in presence of 0.002% polysorbate 80
Enterococcus faecalis [29] = test: Antibacterial activity against Enterococcus faecalis clinical isolate by broth microdilution method in presence of 0.002% polysorbate 80
Streptococcus pneumoniae [30] = test: Antibacterial activity against Streptococcus pneumoniae clinical isolate by broth microdilution method in presence of 0.002% polysorbate 80
Streptococcus agalactiae [31] = test: Antibacterial activity against Streptococcus agalactiae clinical isolate using 2% LHB by broth microdilution method in presence of 0.002% polysorbate 80
[32] = Antibacterial activity against Streptococcus Group C clinical isolate by broth microdilution method; details: Streptococcus sp. 'group C'
Staphylococcus aureus [33] = test: Antibacterial activity against Staphylococcus aureus clinical isolate by broth microdilution method in presence of 0.002% polysorbate 80
Enterococcus faecium [34] = test: Ratio of MIC for Enterococcus faecium clinical isolate to MIC for Enterococcus faecium clinical isolate in presence of 0.002% polysorbate 80
Streptococcus pyogenes [35] = test: Antibacterial activity against Streptococcus pyogenes clinical isolate by broth microdilution method in presence of 0.002% polysorbate 80
[36] = Antibacterial activity against Streptococcus Group G clinical isolate by broth microdilution method in presence of 0.002% polysorbate 80; details: Streptococcus sp. 'group G'
Enterococcus faecalis [37] = test: Antibacterial activity against Enterococcus faecalis ATCC 29212 in CAMHB medium containing 2% LHB by broth microdilution method in absence of 0.002% polysorbate 80
Staphylococcus aureus [38] = test: Antibacterial activity against Staphylococcus aureus clinical isolate by broth microdilution method
Streptococcus viridans [39] = test: Antibacterial activity against Streptococcus viridans group clinical isolate by broth microdilution method
Streptococcus agalactiae [40] = test: Ratio of MIC for Streptococcus agalactiae clinical isolate to MIC for Streptococcus agalactiae clinical isolate in presence of 0.002% polysorbate 80
Enterococcus faecalis [41] = test: Antibacterial activity against Enterococcus faecalis ATCC 29212 in CAMHB medium by broth microdilution method in presence of 0.002% polysorbate 80
Streptococcus viridans [42] = test: Antibacterial activity against Streptococcus viridans group clinical isolate by broth microdilution method in presence of 0.002% polysorbate 80

In the case of CC(=O)N[C@@H]1[C@H](Oc2c3cc4cc2Oc2ccc(cc2Cl)[C@@H](O[C@@H]2O[C@@H](CO)[C@@H](O)[C@H](O)[C@@H]2NC(C)=O)[C@@H]2NC(=O)[C@H](NC(=O)[C@@H]4NC(=O)[C@H]4NC(=O)[C@@H](Cc5ccc(c(Cl)c5)O3)NC(=O)[C@H](N)c3ccc(O)c(c3)Oc3cc(O)cc4c3)c3ccc(O)c(c3)-c3c(O[C@H]4O[C@H](CO)[C@@H](O)[C@@H](O)[C@@H]4O)cc(O)cc3[C@@H](C(=O)O)NC2=O)O[C@@H](CO)[C@@H](O)[C@@H]1O, the MIC (Enterococcus faecalis [1]) is reported as 0.5 µg/mL (≈ 0.283 µM), the MIC (Streptococcus pneumoniae [2]) is reported as 0.03 µg/mL (≈ 0.017 µM) and the MIC (Streptococcus pneumoniae [3]) is reported as 0.03 µg/mL (≈ 0.017 µM). The MIC90 (Enterococcus faecium [4]) was 128 µg/mL, the MIC (Staphylococcus aureus [5]) was 0.5 µg/mL and the MIC (Streptococcus pneumoniae [6]) was 0.03 µg/mL (≈ 0.017 µM). The MIC [7] was 0.03 µg/mL (≈ 0.017 µM), the MIC [8] was 0.03 µg/mL and the MIC (Streptococcus pneumoniae [9]) was 0.06 µg/mL (≈ 0.0339 µM). For the same molecule, the MIC90 (Streptococcus pneumoniae [9]) was 0.06 µg/mL (≈ 0.0339 µM), the MIC (Staphylococcus aureus [10]) was 1 µg/mL (≈ 0.566 µM) and the MIC90 (Streptococcus agalactiae [11]) was 0.06 µg/mL (≈ 0.0339 µM). The Ratio (Streptococcus viridans [12]) was 0.5, the MIC (Staphylococcus aureus [13]) was 0.5 µg/mL (≈ 0.283 µM) and the MIC (Streptococcus pneumoniae [14]) was 0.03 µg/mL. It also gave a Ratio (Streptococcus pyogenes [15]) of 2, an MIC (Streptococcus pneumoniae [16]) of 0.03 µg/mL and a Ratio (Enterococcus faecalis [17]) of 4. It also gave an MIC (Staphylococcus aureus [18]) of 0.5 µg/mL, an MIC90 (Streptococcus pyogenes [19]) of 0.06 µg/mL (≈ 0.0339 µM) and a Ratio (Staphylococcus aureus [20]) of 1. The MIC90 (Enterococcus faecalis [21]) was 0.5 µg/mL (≈ 0.283 µM), the MIC (Enterococcus faecalis [22]) was 0.5 µg/mL and the MIC90 (Staphylococcus [23]) was 2 µg/mL (≈ 1.13 µM). The MIC90 (Enterococcus faecium [24]) was 64 µg/mL (≈ 36.2 µM), the MIC90 (Staphylococcus [25]) was 2 µg/mL and the Ratio (Streptococcus pneumoniae [26]) was 1. The MIC (Streptococcus pneumoniae [27]) was 0.03 µg/mL, the Ratio (Staphylococcus [28]) was 1 and the MIC90 (Enterococcus faecalis [29]) was 0.12 µg/mL. It also gave an MIC (Streptococcus pneumoniae [30]) of 0.06 µg/mL, an MIC90 (Streptococcus pneumoniae [30]) of 0.06 µg/mL and an MIC90 (Streptococcus agalactiae [31]) of 0.06 µg/mL. It also gave an MIC [32] of 0.03 µg/mL (≈ 0.017 µM), an MIC90 (Staphylococcus aureus [33]) of 0.5 µg/mL and a Ratio (Enterococcus faecium [34]) of 0.5. For the same molecule, the MIC90 (Streptococcus pyogenes [35]) was 0.03 µg/mL, the MIC [36] was 0.03 µg/mL and the MIC (Enterococcus faecalis [37]) was 1 µg/mL (≈ 0.566 µM). For the same molecule, the MIC90 (Staphylococcus aureus [38]) was 0.5 µg/mL (≈ 0.283 µM), the MIC90 (Streptococcus viridans [39]) was 0.12 µg/mL (≈ 0.0679 µM) and the Ratio (Streptococcus agalactiae [40]) was 1. It also gave an MIC (Enterococcus faecalis [41]) of 0.5 µg/mL and an MIC90 (Streptococcus viridans [42]) of 0.12 µg/mL.
In the case of O=C(O)c1cn(C2CC2)c2cc(N3CCNCC3)c(F)cc2c1=O [CIPROFLOXACIN], the MIC (Enterococcus faecalis [1]) is reported as 0.5 µg/mL (≈ 1.51 µM), the MIC (Staphylococcus aureus [5]) is reported as 0.5 µg/mL and the MIC (Staphylococcus aureus [10]) is reported as 0.5 µg/mL (≈ 1.51 µM). For the same molecule, the MIC (Staphylococcus aureus [13]) was 0.5 µg/mL (≈ 1.51 µM), the MIC (Streptococcus pneumoniae [16]) was 1 µg/mL and the MIC (Staphylococcus aureus [18]) was 0.5 µg/mL. It also gave an MIC (Enterococcus faecalis [22]) of 0.5 µg/mL, an MIC (Streptococcus pneumoniae [27]) of 1 µg/mL and an MIC (Enterococcus faecalis [37]) of 0.5 µg/mL (≈ 1.51 µM). The MIC (Enterococcus faecalis [41]) was 0.5 µg/mL.
